# Columns and labels:
# [1] = system: CDP-choline levels in the brain; assay: Brain CDP-choline levels after oral UMP in gerbils; format: in vivo; settings: UMP 1 mmole/kg by gavage, for 30 min, r=0.98, p<0.02
# Procedure: Data was pooled from three experiments, with group sizes ranging from 5 to 16 animals. Male gerbils (60-80 g) were given UMP (1 mmole/kg body weight) by gavage and sacrificed at the indicated times. After brain homogenization, protein precipitation, and lyophilization as described for Example 3, samples were analyzed by HPLC-UV.
# Brain tissue or cells was dissolved in methanol/chloroform (1:2 vol/vol), centrifuged, and the aqueous phase was dried under vacuum, resuspended in 100-200 μL water and separated by HPLC on an ion-exchange column (Alltech Hypersil APS-2, 5 μM, 250×4.6 mm). CDP-choline was eluted with a linear gradient of NaH2PO4 buffers A (1.75 mM NaH2PO4, pH 2.9) and B (500 mM, pH 4.5), which allowed resolution of CDP-choline from closely co-eluting substances such as UMP over 40 min. The retention time for CDP-choline was 9.5 min. Individual nucleotide peaks were detected by UV absorption at […], and were identified by comparison with the positions of authentic standards, as well as by the addition of nucleotide standards to selected samples.
# neurofilament-70 (NF-70) = assay: Western blot of NF-70 in striatum of aged rats on UMP diet; format: in vivo
# Procedure: Data were represented according to UMP treatment of six to sixteen measurements each group (means±S.E.M.). One-way ANOVA with Turkey's HSD post hoc tests were used to compare the difference among the treatments the Newman-Keuls multiple range test was used for the data in FIG. 13.
# Striatal tissues were placed in Eppendorf tubes containing 200 μl lysis buffer (60 mM Tris-HCl, 4% SDS, 20% glycerol, 1 mM dithiothreitol, 1 mM AEBSF, 8 μM aprotinin, 500 μM bestatin, 15 μM E64, 200 μM leupeptin, 10 μM pepstatin A). The samples were sonicated, boiled (10 min), and centrifuged (14,000 g for 1 min at room temperature) The supernatant fluid was transferred to a clean tube, and total protein content was determined using the Bicinchoninic Acid assay (Sigma, St. Louis, Mo.).
# Equal amounts of protein (40 μg protein/lane) were loaded for sodium dodecyl sulfate-polyacrylamide gel electrophoresis (4-15% SDS PAGE; Bio-Rad, Hercules, Calif.). Prior to gel electrophoresis, bromphenol blue solution (0.07%) was added to each sample. Proteins were separated, transferred onto polyvinylidene difluoride (PVDF) membranes (Immobilon-P, Millipore), and blocked with 5% bovine serum albumin (Tris-buffered saline/0.15% Tween 20) for 1 h. After 3 10 min rinses in Tris-buffered saline (TBST), blots were incubated in TBST with various antibodies against the proteins of interest, including NF-70, NF-M (1: 2000, 1: 5000, respectively; Calbiochem, La Jolla, Calif.) at 4° C. overnight on an orbital shaker. […] Films were digitized using a Supervista S-12 scanner with a transparency adapter (UMAX Technologies, Freemont, Calif.). Analysis was performed using the public domain NIH Image program (NIH V.1.61).
# EC and IC rats [2] = assay: Visible platform water maze task in EC and IC rats; format: in vivo, Sprague Dawley rats; settings: UMP-supplemented diet
# Description: On each trial the animal was placed into the tank facing the wall at one of four designated start points (N, S, E, and W) and allowed to escape onto the visibly cued platform. A different starting point was used on each trial such that each starting point was used each day. In addition, the visible escape platform was placed in a different quadrant on each trial such that each of the four quadrants contained the escape platform once each day. […] After mounting the platform, rats remained on the platform for 20 sec. Following each trial, animals were removed from the maze and placed in a holding cage for a 30-sec ITI.
# [3] = system: dopamine (DA) release in striatal dialysate; assay: In vivo microdialysis of striatal dopamine and metabolites in aged rats on UMP diet; set-up: species or system Fischer 344 rats; settings: control vs. UMP-1 week vs. UMP-6 weeks, 2.5% UMP diet
# Aging rats = assay: Morris water maze in aging rats on UMP diet; format: in vivo; settings: 2.5% diet for six weeks
# Description: Aging rats (18 months, 500 g) were fed a control diet or a diet containing 2.5% UMP diets for six weeks. They were then shown a hidden platform in a six-foot diameter pool of water, placed somewhere in each of the four quadrants of the pool in turn, and were allowed 90 seconds in each trial to attempt to relocate the platform by swimming, and the swimming time “mean escape latency” recorded. The set of four trials was repeated on each of four consecutive days. The platform was in the same place each day. This test, known as the Morris water maze, is an indicator of spatial memory.
# [4] = system: acetylcholine release from neurons in the corpus striatum; assay: Basal acetylcholine release in corpus striatum of rats on dietary UMP; format: in vivo
# gerbils = assay: Radial arm maze food pellet learning assay in gerbils; format: in vivo; settings: gerbils, 0.1, 0.5 or 2.5% UMP chow for three weeks
# Procedure: Male young adult gerbils fed control or UMP-containing chow (0, 0.1, 0.5 or 2.5%) ad lib for three weeks were tested in a radial arm maze, consisting of a central chamber with four branches primed with a small food pellet at the end of each. Before testing, animals were fasted overnight; each animal was then placed in the central chamber and allowed up to 180 seconds to find all of the pellets. A shorter time required to find the pellets is indicative of improved learning and spatial memory.
# EC and IC rats [5] = assay: Hidden platform water maze task and probe test in EC and IC rats; format: in vivo, Sprague Dawley rats; settings: 0.1% UMP diet
# Procedure: Behavioral training was carried out between 10:00 AM-2:00 PM, in a blinded manner. […] A different starting point was used on each trial such that each starting point was used once each day. […] After mounting the platform, rats remained on the platform for 20 seconds. Following each trial, animals were removed from the maze and placed in a holding cage for a 30 second inter-trial interval (ITI). The latency to mount the escape platform was used as a measure of task acquisition.
# For this, the platform was removed and the swim path and time spent searching in the quadrant of the pool that previously contained the platform were measured over 60 s. This provides a measurement for the retention of spatial memory and indicates whether a spatial strategy was used during hidden platform training.
smiles,measurement,setting,value
"O=c1ccn([C@@H]2O[C@H](COP(=O)([O-])[O-])[C@@H](O)[C@H]2O)c(=O)[nH]1.[Na+].[Na+] [UMP, uridine-5′-monophosphate disodium]",Brain CDP-choline levels,[1],rose significantly in a linear fashion
same,NF-70 level compared to control group,neurofilament-70 (NF-70); UMP diet 1 week,did not increase
same,"NF-70 level, of control values","neurofilament-70 (NF-70); UMP diet 6 weeks, striatum, p<0.05",182±25%
same,"NF-70 level in striatum, of control values (second statement)",neurofilament-70 (NF-70); feeding time not given,204±36%
same,"Striatal-based (stimulus-response) memory, visible platform task",EC and IC rats [2],little or no effect
same,Basal DA levels in dialysate,[3],did not affect
same,Basal DOPAC levels in dialysate,[3],no effects
same,Basal HVA levels in dialysate,[3],no effects
same,Time required to reach the platform (mean escape latency),Aging rats,statistically significant reduction in the time required to reach the location of the platform
same,Basal release of acetylcholine in corpus striatum,[4],increase the basal release
same,Time required to find the pellets,gerbils,reduced the time required for gerbils to find the pellet in a dose-dependent manner
same,Rate of acquisition of hidden platform task,"EC and IC rats [5]; EC rats, vs EC-CONT, P<0.09",acquired the task at a faster rate
same,Rate of acquisition of hidden platform task,"EC and IC rats [5]; IC rats, vs IC-CONT, P<0.05",acquired the task at a significantly faster rate
same,"Time in correct quadrant, 60 s probe test","EC and IC rats [5]; IC rats, vs IC-CONT, p<0.01",spent significantly more time in the correct quadrant
